Source: patent US4496655A, “Process for the production of tyramine oxidase” (Toyo Jozo Kabushiki Kaisha, priority 1981, dated 1985)
Where two headings read alike, the source gives them in different places.

Assays:
tyramine oxidase [1] = test: Effect of various substances on the activity of tyramine oxidase; format: biochemical, Arthrobacter sp. B-0813
Protocol: (§1) An enzyme solution (0.05 ml) is added to a reaction mixture (0.5 ml) consisting of the following, and the volume is increased to 1.0 ml by adding water and the mixture is incubated at 37° C. for 10 minutes.
(§2) Water (0.1 ml) is added in place of enzyme solution as a control. The reaction mixture is measured at 490 nm.
(§3) Enzyme activity is calculated by the following equation: [formula] wherein Δ490 nm is the absorption value at Δ490 nm for 10 minutes, and f is the dilution ratio.

tyramine oxidase [2] = test: Substrate specificity of tyramine oxidase; format: biochemical, Arthrobacter sp. B-0813; design: Relative activity (%) as substrate: concentration or dose not given beside the values; settings: for Relative activity (%) as substrate: substrate added to the reaction mixture, tyramine = 100.0
Protocol: as §1, §2, §3
Substrate specificity was measured by adding various substrates to the reaction mixture.

[3] = tested on: Arthrobacter sp. B-0813 FERM-P No. 6240; format: cell-based; settings: arthrobacter culture
Protocol: A medium (100 ml, pH 7.5) comprising by weight soybean oil 0.8%, corn steep liquor 1.0%, meat extract 0.1%, polypeptone 1.0%, NaCl 0.3% and β-phenylethylamine 0.15% was put into a 500 ml Erlenmeyer flask and sterilized at 120° C. for 20 minutes. Arthrobacter sp. B-0813 FERM-P No. 6240 was inoculated into the medium and the mixture was cultured at 30° C. for 20 hours to prepare a seed culture. The medium containing the same components (20 lit.) together with added 0.2% of antifoam agent (silicone AF-145), (Asahi Chem.) was poured into a 30 lit. jar fermenter and the above two flasks of seed culture were inoculated therein, then the medium was aerobically cultured with agitation at 250 rpm and with 20 lit./min. aeration for 20 hours. The tyramine oxidase activity of the cultured broth was 1.3 U/ml.
When tyramine or butylamine was added to the medium, a more than 200-fold increase in the yield of enzyme was observed as compared with no addition of these amines. The amount of such addition is 0.1-0.2%, preferably 0.15%. The culturing temperature is generally 25°-35° C. and the culturing time is 10-30 hours.

tyramine oxidase [4] = test: Km-value of tyramine oxidase; format: biochemical, Arthrobacter sp. B-0813; settings: substrate tyramine
Protocol: as §1

[5] = amount added 5 mM, control (no addition) = 100.0
[6] = amount added 0.025 mM, control (no addition) = 100.0

| Molecule | Relative Activity (%) (tyramine oxidase [1]; [5]) | Relative activity (%) as substrate (tyramine oxidase [2]) | other results |
| --- | --- | --- | --- |
| [Ba+2].[Cl-].[Cl-] [BaCl2] | 96.6% |  |  |
| NCc1ccccc1 [Benzylamine] |  | 0.0% |  |
| [Ca+2].[Cl-].[Cl-] [CaCl2] | 86.2% |  |  |
| CCCCCCCCCCCCCCCC[N+](C)(C)C.[Cl-] [Cetyltrimethylammonium chloride] |  |  | Relative Activity (%) (tyramine oxidase [1]; [6]): 0.0% |
| [Cl-].[Cl-].[Co+2] [CoCl2] | 86.2% |  |  |
| O=C(O)CN(CCN(CC(=O)O)CC(=O)O)CC(=O)O [EDTA] |  |  | Relative Activity (%) (tyramine oxidase [1]): 100.0% |
| CCN [Ethylamine] |  | 0.0% |  |
| Cc1cc2nc3c(=O)[nH]c(=O)nc-3n(C[C@H](O)[C@H](O)[C@H](O)COP(=O)(O)OP(=O)(O)OC[C@H]3O[C@@H](n4cnc5c(N)ncnc54)[C@H](O)[C@@H]3O)c2cc1C [FAD] |  |  | Relative Activity (%) (tyramine oxidase [1]; amount added 0.1 mM, control (no addition) = 100.0): 75.4% |
| Cc1cc2nc3c(=O)[nH]c(=O)nc-3n(C[C@H](O)[C@H](O)[C@H](O)COP(=O)(O)O)c2cc1C [FMN, flavin mononucleotide] |  |  | Effect of addition on the activity of the enzyme (in words) (tyramine oxidase [1]): increases the activity; Relative Activity (%) (tyramine oxidase [1]; amount added 0.01 mM, control (no addition) = 100.0): 108.8% |
| [Cl-].[Li+] [LiCl] | 82.8% |  |  |
| CN [Methylamine] |  | 0.0% |  |
| [Cl][Mn][Cl] [MnCl2] | 82.8% |  |  |
| Cl.N [NH4 Cl] | 96.6% |  |  |
| [Na+].[Na+].[O]=[Mo](=[O])([O-])[O-] [NaMoO4] | 39.7% |  |  |
| [N-]=[N+]=[N-].[Na+] [NaN3] | 98.3% |  |  |
| NCCc1ccc(O)cc1 [Tyramine, p-hydroxyphenylethylamine] |  | 100.0% | Activity of the enzyme on the substrate (in words) (tyramine oxidase [2]): specific activity; Increase in the yield of enzyme compared with no addition of these amines [3]: more than 200 fold; Km (tyramine oxidase [4]): 27 µM |
| CCCCN [n-butylamine] |  | 45.3% | Activity of the enzyme on the substrate (in words) (tyramine oxidase [2]): activity; Increase in the yield of enzyme compared with no addition of these amines [3]: more than 200 fold |
| O=C(O)c1cc[c]([Hg][Cl])cc1 [p-chloromercuribenzoate (PCMB), p-chloromercuribenzoate] |  |  | Relative Activity (%) (tyramine oxidase [1]; amount added 0.2 mM, control (no addition) = 100.0): 79.3% |
| NCCc1ccc(Cl)cc1 [p-chlorophenylethylamine] |  | 47.9% | Activity of the enzyme on the substrate (in words) (tyramine oxidase [2]): activity |
| NCCc1ccccc1 [β-phenylethylamine] |  | 54.7% | Activity of the enzyme on the substrate (in words) (tyramine oxidase [2]): activity |
| Laurylbenzene sulfonate [Laurylbenzene sulfonate (LBS)] |  |  | Relative Activity (%) (tyramine oxidase [1]; amount added 0.05 mM, control (no addition) = 100.0): 63.9% |
| Triton X-100 |  |  | Relative Activity (%) (tyramine oxidase [1]; [6]): 96.7% |
